Laboratory results reported in paper PMC8241022 (Drug Delivery, 2017).
Read-outs that look alike come from different tables or passages of the source. Marks after values point to notes of the source that are not given here.

Columns and labels:
in vivo [1] = conditions: both, New Zealand albino, rabbit; for Tmax: CCSDD group, 0.3 ml (5 mg/ml) DEXP then 0.1 ml/h for 10 h
Description: (§1) Male and female New Zealand albino rabbits (about four months old and weighing 2.0–2.5 kg) were acquired from the Third Xiangya Hospital of Central South University (Changsha, China). All rabbits were examined thoroughly, and no ocular disease, then were randomly allocated to different groups for subsequent ocular PK studies. Animals were anesthetized by intramuscularly injecting Xylazine Hydrochloride Injection (2 ml:0.2 g, Huamu Animal Health Products Co., Jilin, 0.1–0.2 ml/kg) and dropped Oxybuprocaine Hydrochloride Eye Drops (20 ml:80 mg, Sa) three times, interval 2 min per time.
(§2) Rabbits were randomly divided into three groups and six rabbits for each group per time point. […] After the last instillation in IV group (1 h, 3 h, 6 h, 12 h, 24 h) and SC injection group (1 h, 2 h, 3 h, 4 h, 6 h, 8 h, 12 h, 24 h), respectively, the ocular tissue were collected. […] Animals were euthanized by 3 ml lidocaine (3 ml/rabbit) and 3 ml air intravenously, immediately after death, ocular tissues were collected. Vitreous, choroid/retina and sclera were dissected and weighted as the solid tissues, the samples were stored at −20 °C and then processed for analysis.
(§3) Frozen rabbit samples were thawed at ambient temperature, the solid samples were fixed with 400 ml 0.9% normal saline (NS) and homogenized. A 100 μl aliquot of Triamcinolone diacetate (I.S. 200 ng/ml) standard solution was added to 100 μl of each fluid sample and 400 μl 0.9% NS or homogenized samples. After a thorough vortex mixing for 30 s, the mixture was extracted with 1 ml n-hexane and acetate ester (1:1, v/v) for 60 min, the mixture was centrifuged at 14 000 rpm for 5 min. The organic layer was removed and evaporated under a gentle stream nitrogen gas at 45 °C until it was completely dry. The dried residue was dissolved with 50 μl mobile phase. After centrifugation, 5 μl of the clear supernatant was injected into the LC–MS system: LC-10AD VP low pressure gradient pump, CTO-10A VP column temperature oven, SCL-10AD VP system controller, and LC-MS chemstation. Separation was achieved on a Thermo Hypersil-Hypurity C18 column (150 mm × 2.1 mm, i.d., 5 μm, USA) at 40 °C. […] The operating parameters of ESI–MS (electrospray ionization–mass spectrometry) were as follows: capillary voltage was 4.5 kV; nebulizer nitrogen gas flow-rate was 1.5 l/min; drying N2 flow was 10 l/min; drying gas temperature was 250 °C, the gas used was of high purity, and system control and data evaluation were carried out using LC-MS chemstation (Japan). […] Quantitation was performed by a linear regression analysis of peak areas ratio from a standard curve containing seven standard points.
(§4) The following pharmacokinetic parameters were obtained: peak concentration (Cmax), time to peak concentration (Tmax), elimination half-life (T1/2), area under the concentration–time curve between 0 and 24 h (AUC0–24).
(§5) Tissue concentrations were analyzed using one-way analysis of variance (ANOVA). If there were differences in three groups, we used Dunnett T3 to analyze two groups. All other results were descriptive measures. Statistical significance was accepted at a level of p < 0.05.

in vivo [2] = conditions: both, New Zealand albino, rabbit, iv, 1 mg/kg
Description: as §1, §2, §3, §4, §5

[3] = for dexamethasone concentration, Choroidal/retinal compound / dexamethasone concentration, Sclera / dexamethasone concentration, Vitreum: CCSDD: first dose 0.3 ml (5 mg/ml) DEXP, then 0.1 ml/h for 10 h, mean ± SD, n=6
Description: as §1, §2, §3, §4, §5

[4] = for dexamethasone concentration, Choroidal/retinal compound / dexamethasone concentration, Sclera / dexamethasone concentration, Vitreum: IV: intravenous injection of 1 mg/kg DEXP, mean ± SD, n=6
Description: as §1, §2, §3, §4, §5

[5] = SC: subconjunctival injection of 0.3 ml (5 mg/ml) DEXP, mean ± SD, n=6
Description: as §1, §2, §3, §4, §5

C[C@@H]1C[C@H]2[C@@H]3CCC4=CC(=O)C=C[C@]4(C)[C@@]3(F)[C@@H](O)C[C@]2(C)[C@@]1(O)C(=O)CO [dexamethasone]
Cmax (in vivo [1]; choroid/retina): 3220 ng/g
Cmax (in vivo [1]; in vivo, topical or ocular, 6.5 mg): 71 ng/mL
Tmax (in vivo [1]; in vivo, topical or ocular, 6.5 mg, Choroidal/retinal compound): 3 h
Tmax (in vivo [1]; in vivo, topical or ocular, 6.5 mg, Sclera): 1 h
Tmax (in vivo [1]; in vivo, topical or ocular, 6.5 mg, Vitreum): 1 h
Cmax (in vivo [1]; sclera): 11200 ng/g
AUC(0-t) (in vivo [1]; vitreous, topical or ocular, 6.5 mg): 1410 ng·h/mL
Cmax (in vivo [2]; choroid/retina): 285 ng/g
Tmax (in vivo [2]; choroid/retina): 3 h
Cmax (in vivo [2]; sclera): 403 ng/g
Tmax (in vivo [2]; sclera): 3 h
AUC(0-t) (in vivo [2]; vitreous): 285 ng·h/mL
Cmax (in vivo [2]; vitreous): 43.8 ng/mL
Tmax (in vivo [2]; vitreous): 1 h
AUC0–24, choroid/retinal compound ([3]; CCSDD administration, rabbit): 41400.70 ng·h/g
AUC0–24, sclera ([3]; CCSDD administration, rabbit): 93577.80 ng·h/g
dexamethasone concentration, Choroidal/retinal compound ([3]; 1 h after first dose): 2522.46 ± 425.94
dexamethasone concentration, Sclera ([3]; 1 h after first dose): 11192.22 ± 5302.51
dexamethasone concentration, Vitreum ([3]; 1 h after first dose): 71.05 ± 30.23
dexamethasone concentration, Choroidal/retinal compound ([3]; 3 h after first dose): 3291.35 ± 438.11
dexamethasone concentration, Sclera ([3]; 3 h after first dose): 9785.20 ± 1964.12
dexamethasone concentration, Vitreum ([3]; 3 h after first dose): 57.23 ± 12.34
dexamethasone concentration, Choroidal/retinal compound ([3]; 6 h after first dose): 2331.09 ± 454.41
dexamethasone concentration, Sclera ([3]; 6 h after first dose): 6215.17 ± 1871.83
dexamethasone concentration, Vitreum ([3]; 6 h after first dose): 50.23 ± 13.77
dexamethasone concentration, Choroidal/retinal compound ([3]; 10 h after first dose): 1796.19 ± 380.36
dexamethasone concentration, Sclera ([3]; 10 h after first dose): 4053.03 ± 1330.47
dexamethasone concentration, Vitreum ([3]; 10 h after first dose): 50.51 ± 8.40
dexamethasone concentration, Choroidal/retinal compound ([3]; 11 h after first dose): 1518.52 ± 332.81
dexamethasone concentration, Sclera ([3]; 11 h after first dose): 3857.47 ± 1508.05
dexamethasone concentration, Vitreum ([3]; 11 h after first dose): 42.84 ± 6.24
dexamethasone concentration, Choroidal/retinal compound ([3]; 12 h after first dose): 1191.62 ± 303.29
dexamethasone concentration, Sclera ([3]; 12 h after first dose): 1913.73 ± 389.28
dexamethasone concentration, Vitreum ([3]; 12 h after first dose): 33.52 ± 5.31
dexamethasone concentration, Choroidal/retinal compound ([3]; 16 h after first dose): 988.97 ± 336.43
dexamethasone concentration, Sclera ([3]; 16 h after first dose): 1215.48 ± 449.07
dexamethasone concentration, Choroidal/retinal compound ([3]; 20 h after first dose): 812.90 ± 188.26
dexamethasone concentration, Sclera ([3]; 20 h after first dose): 906.40 ± 312.84
dexamethasone concentration, Vitreum ([3]; 20 h after first dose): 27.78 ± 3.26
dexamethasone concentration, Choroidal/retinal compound ([3]; 24 h after first dose): 418.20 ± 97.81
dexamethasone concentration, Sclera ([3]; 24 h after first dose): 484.52 ± 155.25
dexamethasone concentration, Vitreum ([3]; 24 h after first dose): 22.40 ± 4.38
AUC0–24, choroid/retinal compound ([4]; IV route, rabbit): 1571.71 ng·h/g
AUC0–24, sclera ([4]; IV route, rabbit): 2858.71 ng·h/g
dexamethasone concentration, Choroidal/retinal compound ([4]; 1 h): 140.57 ± 34.56^a
dexamethasone concentration, Sclera ([4]; 1 h): 281.42 ± 60.13^a
dexamethasone concentration, Vitreum ([4]; 1 h): 43.78 ± 2.62
dexamethasone concentration, Sclera ([4]; 3 h): 402.99 ± 96.49^a
dexamethasone concentration, Vitreum ([4]; 3 h): 30.08 ± 2.55^a
dexamethasone concentration, Choroidal/retinal compound ([4]; 6 h): 90.75 ± 12.08^a
dexamethasone concentration, Sclera ([4]; 6 h): 141.57 ± 31.46^a
dexamethasone concentration, Vitreum ([4]; 6 h): 21.53 ± 2.66^a
dexamethasone concentration, Choroidal/retinal compound ([4]; 12 h): 38.94 ± 13.00^a
dexamethasone concentration, Sclera ([4]; 12 h): 64.38 ± 11.83^a
dexamethasone concentration, Vitreum ([4]; 12 h): 5.34 ± 5.11^a
dexamethasone concentration, Choroidal/retinal compound ([4]; 24 h): 3.71 ± 4.50^a
dexamethasone concentration, Sclera ([4]; 24 h): 22.23 ± 7.44^a
dexamethasone concentration, Vitreum ([4]; 24 h): 1.37 ± 2.14^a
dexamethasone concentration, Choroidal/retinal compound ([5]; 1 h): 1881.83 ± 336.98^a
dexamethasone concentration, Sclera ([5]; 1 h): 8604.95 ± 1597.26
dexamethasone concentration, Vitreum ([5]; 1 h): 63.19 ± 15.12
dexamethasone concentration, Choroidal/retinal compound ([5]; 2 h): 3212.63 ± 796.76
dexamethasone concentration, Sclera ([5]; 2 h): 6071.65 ± 737.76
dexamethasone concentration, Vitreum ([5]; 2 h): 80.45 ± 11.10
dexamethasone concentration, Choroidal/retinal compound ([5]; 3 h): 3638.80 ± 580.05
dexamethasone concentration, Sclera ([5]; 3 h): 4419.68 ± 1006.87^a
dexamethasone concentration, Vitreum ([5]; 3 h): 73.77 ± 14.74
dexamethasone concentration, Choroidal/retinal compound ([5]; 4 h): 1701.27 ± 551.90
dexamethasone concentration, Sclera ([5]; 4 h): 2287.56 ± 742.66
dexamethasone concentration, Vitreum ([5]; 4 h): 39.65 ± 8.87
dexamethasone concentration, Choroidal/retinal compound ([5]; 6 h): 1333.65 ± 469.43^a
dexamethasone concentration, Sclera ([5]; 6 h): 1645.75 ± 631.69^a
dexamethasone concentration, Vitreum ([5]; 6 h): 34.53 ± 6.89
dexamethasone concentration, Choroidal/retinal compound ([5]; 8 h): 760.86 ± 177.74
dexamethasone concentration, Sclera ([5]; 8 h): 1031.78 ± 443.14
dexamethasone concentration, Vitreum ([5]; 8 h): 28.29 ± 4.56
dexamethasone concentration, Sclera ([5]; 12 h): 463.21 ± 136.14^a
dexamethasone concentration, Vitreum ([5]; 12 h): 22.68 ± 5.40^a
dexamethasone concentration, Choroidal/retinal compound ([5]; 24 h): 184.59 ± 94.86^a
dexamethasone concentration, Sclera ([5]; 24 h): 237.94 ± 139.25^a
dexamethasone concentration, Vitreum ([5]; 24 h): 3.71 ± 4.31^a
